Source: the supplement of paper PMC10307832

Experiments:
Experiment in all cases: relative viability (nuclei count vs DMSO), 5 days (fraction); higher = more cells survive
[1] = compound: C[C@@H](C(=O)N[C@@H](C1CCCCC1)C(=O)N2CCC[C@H]2C(=O)N[C@@H]3[C@@H](CC4=CC=CC=C34)OCC#CC#CCO[C@@H]5CC6=CC=CC=C6[C@@H]5NC(=O)[C@@H]7CCCN7C(=O)[C@H](C8CCCCC8)NC(=O)[C@H](C)NC)NC [AZD5582] + Cc1nc(NC(=O)N2CCC[C@H]2C(N)=O)sc1-c1ccnc(C(C)(C)C(F)(F)F)c1 [Alpelisib] (partner 2 µM)
Procedure, shortened: (§1)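 One day after seeding in 1536-well plates, lung cancer cell lines were dosed by pin tool. Dosing was either single-drug or a fixed anchor-drug dose plus five library-drug doses (not always all listed) in √10 steps. After 5 days, nuclei were stained in one fix-and-stain step and counted on 4× images, and relative viability is the nuclei count of treated wells over that of vehicle wells, given as the median of duplicate plates.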

[2] = compound: Cn1nnc2c(C(N)=O)ncn2c1=O [Temozolomide] + CS(=O)(=O)N1CCN(Cc2cc3nc(-c4cccc5[nH]ncc45)nc(N4CCOCC4)c3s2)CC1 [Pictilisib] (partner 1 µM)
Procedure, shortened: as §1

[3] = compound: Cn1nnc2c(C(N)=O)ncn2c1=O [Temozolomide] + Nc1nc2[nH]cc(CCc3ccc(C(=O)N[C@@H](CCC(=O)O)C(=O)O)cc3)c2c(=O)[nH]1 [Pemetrexed] (partner 0.2 µM)
Procedure, shortened: as §1

[4] = compound: C[C@@H](C(=O)N[C@@H](C1CCCCC1)C(=O)N2CCC[C@H]2C(=O)N[C@@H]3[C@@H](CC4=CC=CC=C34)OCC#CC#CCO[C@@H]5CC6=CC=CC=C6[C@@H]5NC(=O)[C@@H]7CCCN7C(=O)[C@H](C8CCCCC8)NC(=O)[C@H](C)NC)NC [AZD5582] + CC(=O)c1c(C)c2cnc(Nc3ccc(N4CCNCC4)cn3)nc2n(C2CCCC2)c1=O [Palbociclib] (partner 0.5 µM)
Procedure, shortened: as §1

Cell Line	relative viability ([1]; first compound 0.005 µM)	relative viability ([1]; first compound 0.01581 µM)	relative viability ([1]; first compound 0.05 µM)	relative viability ([2]; first compound 0.6325 µM)	relative viability ([2]; first compound 2 µM)	relative viability ([2]; first compound 6.325 µM)	relative viability ([2]; first compound 20 µM)	relative viability ([3]; first compound 0.2 µM)	relative viability ([3]; first compound 0.6325 µM)	relative viability ([3]; first compound 2 µM)	relative viability ([3]; first compound 6.325 µM)	relative viability ([3]; first compound 20 µM)	relative viability ([4]; first compound 0.001581 µM)	relative viability ([4]; first compound 0.005 µM)	relative viability ([4]; first compound 0.01581 µM)	relative viability ([4]; first compound 0.05 µM)	relative viability ([1]; first compound 0.001581 µM)	relative viability ([2]; first compound 0.2 µM)
CAL-12T	0.713	1.24	1.01	0.434	0.425	0.334	0.391	1.34	1.12	1.1	1.16	1.39	0.2	0.225	0.309	0.159		
HCC-44	0.525	0.738	0.368	0.611	0.69	0.566	0.534	0.688	0.669	0.699	0.707	0.653	0.906	0.931	1.02	0.928	0.683	0.599
A-427	1.01	1.04	0.881	0.733	0.797	0.417	0.329	1.01	0.919	0.957	0.783	0.549	0.462	0.473	0.528	0.495	0.996	0.816
NCI-H1666	0.833	1.08	1.03	0.404	0.394	0.345	0.298	0.736	0.895	0.963	0.877	0.767	0.678	0.579	0.575	0.661	0.851	0.433
HCC-78	0.395	0.307	0.3	0.221	0.211	0.21	0.193	0.896	0.921	0.927		0.958	0.435	0.474	0.474	0.432	0.298	0.26
HCC-366	0.625	0.389	0.774	0.152	0.198	0.212	0.219	0.143	0.17	0.188	0.165	0.155	0.347	0.319	0.322	0.43	0.363	0.164
EPLC-272H	0.506	0.136	0.217	0.35	0.334	0.298	0.326	0.321	0.322	0.356	0.247	0.317	0.165		0.32	0.127	0.635	0.356
NCI-H1755	0.918	0.874	0.996	0.447	0.462	0.413	0.379	0.433	0.43	0.388	0.39	0.612	0.449	0.484	0.453	0.526	0.875	0.507
SK-MES-1	0.995	0.808	0.947	0.362	0.424	0.331	0.282	1.01	0.911	0.975	0.92	0.866	0.286	0.32	0.332	0.291	0.773	0.279
NCI-H838	0.97	0.907	1.18	0.48	0.577	0.446	0.584	0.247	0.256	0.254	0.252	0.233	0.214	0.257	0.191	0.213	0.89	0.45
NCI-H2170	0.809	0.867	0.969	0.38	0.361	0.289	0.23		0.283	0.264	0.253	0.237	0.37	0.388	0.364	0.492	0.764	
HCC-827	1.02	0.985	1.04	0.958	1.06	1.05	0.313	0.176	0.273	0.249	0.264	0.16	0.481	0.47	0.492	0.529	0.898	0.82
NCI-H1793	0.856	0.69	0.887	0.294	0.286	0.292	0.309		1.19	1.03	0.718	0.792	0.311	0.355	0.297	0.397	0.637	
NCI-H441	0.709	0.594	0.615	0.443	0.543	0.375	0.51	0.28	0.309	0.272	0.257	0.236	0.232	0.224	0.206	0.187	0.511	0.437
H3255	0.587	0.629	0.498	0.539	0.422	0.38	0.0897		0.544	0.59	0.543	0.336	0.29	0.306	0.302	0.318	0.596	
ABC-1	1.15	1.07	1.03	0.8	0.881	0.609	0.53						0.658	0.834	0.492	0.625	1.17	0.726
201T	1.07	0.977	1.25	0.731	0.735	0.69	0.641	0.346	0.345	0.398	0.339	0.316	0.375	0.357	0.316	0.43	1.05	0.683
NCI-H596	0.33	0.538	0.304	0.404	0.411	0.385	0.384	0.515	0.535	0.621	0.465	0.574					0.554	0.421
EKVX	1.03	0.82	1.08	0.38	0.391	0.379	0.273		0.38	0.352	0.388	0.305	0.378	0.425	0.298	0.393	0.868	0.23
LOU-NH91	0.747	0.787	0.775	0.547	0.551	0.523	0.497	0.389	0.366	0.371	0.395	0.458	0.529	0.54	0.487	0.532	0.752	0.512
NCI-H1355	0.832	0.82	0.852	0.46	0.427	0.38	0.39	1.01	1.03	0.963	1	0.998	0.378	0.415	0.386	0.357	0.724	0.433

Cell Line	relative viability ([1]; first compound 0.005 µM)	relative viability ([1]; first compound 0.01581 µM)	relative viability ([1]; first compound 0.05 µM)	relative viability ([2]; first compound 0.6325 µM)	relative viability ([2]; first compound 2 µM)	relative viability ([2]; first compound 6.325 µM)	relative viability ([2]; first compound 20 µM)	relative viability ([3]; first compound 0.2 µM)	relative viability ([3]; first compound 0.6325 µM)	relative viability ([3]; first compound 2 µM)	relative viability ([3]; first compound 6.325 µM)	relative viability ([3]; first compound 20 µM)	relative viability ([4]; first compound 0.001581 µM)	relative viability ([4]; first compound 0.005 µM)	relative viability ([4]; first compound 0.01581 µM)	relative viability ([4]; first compound 0.05 µM)	relative viability ([1]; first compound 0.001581 µM)	relative viability ([2]; first compound 0.2 µM)
SK-LU-1	0.554	0.95	0.243	0.62	0.544	0.295	0.281	1.06	1.01	0.875	0.495	0.522	0.333	0.366	0.331	0.247	0.744	0.688
LK-2	1.15	1.28	1.33	0.568	0.575	0.353	0.305	0.284	0.288	0.299	0.264	0.277	0.553	0.738		0.75	1.05	0.48
NCI-H650	0.934	0.997	0.863	0.97	0.943	0.865	0.908	0.934	0.902	0.963	0.96	0.961	0.328	0.287	0.255	0.245	1.06	0.875
NCI-H2085	0.987	0.928	1.01	0.434	0.551	0.453	0.442	1.04	0.951	0.979	0.926	0.744	0.504	0.509	0.459	0.599	1	0.452
RERF-LC-KJ	0.532	0.781	0.639	0.564	0.557	0.501	0.467	0.484	0.507	0.486	0.464	0.461	0.354	0.494	1.03	0.27		0.625
NCI-H727	0.627	0.441	0.556	0.316	0.364	0.286	0.371						0.612	0.647	0.635	0.614	0.578	0.324
NCI-H1651	1.02	0.855	1.15	0.681	0.654	0.588	0.613	0.58	0.588	0.591	0.6	0.617	0.489	0.52	0.492	0.608	1.03	0.567
LCLC-97TM1	0.269	0.226	0.23	0.224	0.163	0.178	0.17	0.195	0.198	0.177	0.156	0.209	0.172	0.282	0.24	0.165		0.197
NCI-H522								0.765	0.972	1.27	0.984	0.804	0.963	1.02	1.11	0.912		
IA-LM	0.71	0.844	0.686	0.376	0.385	0.266	0.328										0.686	0.279
NCI-H1299	1.11	1.07	1.03	0.8	0.744	0.784	0.847										1.01	0.823
NCI-H1563	0.893	0.858	1.01	0.619	0.642	0.609	0.664	0.71	0.798	0.744	0.739	0.747					1.02	0.654
NCI-H1648									0.614	0.554	0.696	0.82	0.264	0.311		0.274		
ChaGo-K-1				0.904	1.02	0.635	0.581	0.258	0.256	0.263	0.257	0.246	0.882	0.943	0.921	1.01		0.784
Calu-6	0.843	1.07	0.734	0.939	0.883	0.867	0.974										0.822	1.21
NCI-H2342								0.653	0.86	0.914	0.708	0.769	0.492	0.518	0.491	0.54		
NCI-H1650				0.611	0.55	0.579	0.478	0.335	0.349	0.443	0.355	0.459	0.37	0.43	0.334	0.328		0.661
EBC-1	0.866	0.869	0.857	0.358	0.388	0.387	0.416										0.754	0.493
A549	0.717	0.769	0.835	0.471	0.525	0.507	0.504										0.713	0.61
SW 900								0.525	0.496	0.507	0.474	0.472	0.443	0.566	0.531	0.435		
